From ChEMBL document CHEMBL1156297, “Sulfonamide linked neoglycoconjugates--a new class of inhibitors for cancer-associated carbonic anhydrases” (J Med Chem, 2010) come the findings set out here.

In general, Ki refers to the equilibrium dissociation constant of an inhibitor or competing ligand from its target. Higher therefore signals weaker binding.

Molecules are shown by their SMILES.

For data set [1], the target named is Carbonic anhydrase 1 (Homo sapiens, UniProt P00915).
Data set [2] has as its target Carbonic anhydrase 2 (Homo sapiens, UniProt P00918).
Data set [3] addresses Carbonic anhydrase 9 (Homo sapiens, UniProt Q16790).
Data set [4] has as its target Carbonic anhydrase 12 (Homo sapiens, UniProt O43570).
A short description of data set [5]: Permeability by PAMPA. Format: ADME. Conditions: read-out: permeability. A general note: PAMPA measures passive passage across an artificial lipid membrane.

Chain of Carbonic anhydrase 12 (O43570 whole entry): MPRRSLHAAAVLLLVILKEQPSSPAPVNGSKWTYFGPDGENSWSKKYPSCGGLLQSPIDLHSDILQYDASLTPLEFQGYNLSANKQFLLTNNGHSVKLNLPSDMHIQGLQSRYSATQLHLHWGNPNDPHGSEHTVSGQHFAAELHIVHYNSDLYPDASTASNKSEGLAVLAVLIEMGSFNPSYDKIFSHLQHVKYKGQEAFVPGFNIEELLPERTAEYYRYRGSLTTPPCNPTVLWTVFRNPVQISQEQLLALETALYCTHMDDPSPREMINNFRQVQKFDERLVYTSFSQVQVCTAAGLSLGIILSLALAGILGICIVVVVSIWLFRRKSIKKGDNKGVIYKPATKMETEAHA
Chain of Carbonic anhydrase 1 (P00915 whole entry): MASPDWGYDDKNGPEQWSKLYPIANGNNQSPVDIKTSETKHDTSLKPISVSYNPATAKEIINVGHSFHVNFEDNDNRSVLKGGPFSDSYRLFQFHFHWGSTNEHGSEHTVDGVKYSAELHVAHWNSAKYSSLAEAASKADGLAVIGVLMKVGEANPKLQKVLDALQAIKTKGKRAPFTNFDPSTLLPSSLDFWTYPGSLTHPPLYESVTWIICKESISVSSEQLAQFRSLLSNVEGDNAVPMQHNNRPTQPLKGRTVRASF

`NS(=O)(=O)c1ccc(CNS(=O)(=O)[C@@H]2O[C@H](CO)[C@@H](O[C@@H]3O[C@H](CO)[C@H](O)[C@H](O)[C@H]3O)[C@H](O)[C@H]2O)cc1`: the Ki in data set [1] came to 107 nM; in data set [2] it was 5 nM; in data set [3], 106 nM; in data set [4], 8.9 nM.

As to `CC(=O)OC[C@H]1O[C@@H](SNCc2ccc(S(N)(=O)=O)cc2)[C@H](OC(C)=O)[C@@H](OC(C)=O)[C@H]1OC(C)=O`, the Ki in data set [1] amounted to 120 nM; in data set [2], 13.4 nM; in data set [4], 15.5 nM.

On to `NS(=O)(=O)c1ccc(CCNS(=O)(=O)[C@@H]2O[C@H](CO)[C@@H](O[C@@H]3O[C@H](CO)[C@H](O)[C@H](O)[C@H]3O)[C@H](O)[C@H]2O)cc1`, for which the Ki in data set [1] is 78 nM; in data set [2] it was 4.6 nM; in data set [3] it was 100 nM; in data set [4] it was 9.1 nM.

For `COC(=O)[C@H]1O[C@@H](S(=O)(=O)NCc2ccc(S(N)(=O)=O)cc2)[C@H](OC(C)=O)[C@@H](OC(C)=O)[C@H]1OC(C)=O`, the Ki in data set [1] was 2400 nM; in data set [2], 65.8 nM; in data set [4], 9.8 nM.

On to `CC(=O)OC[C@H]1O[C@@H](O[C@H]2[C@H](OC(C)=O)[C@@H](OC(C)=O)[C@H](SNCc3ccc(S(N)(=O)=O)cc3)O[C@@H]2COC(C)=O)[C@H](OC(C)=O)[C@@H](OC(C)=O)[C@H]1OC(C)=O`, for which the Ki amounted to 6830 nM in data set [1], 15.5 nM in data set [2] and 9.8 nM in data set [4].

For the compound `NS(=O)(=O)c1ccc(CCNS(=O)(=O)[C@@H]2O[C@H](CO)[C@H](O)[C@H](O)[C@H]2O)cc1`, the Ki in data set [1] turned out to be 82 nM; in data set [2], 7.6 nM; in data set [3], 100 nM; in data set [4], 7.8 nM.

On to `NS(=O)(=O)c1ccc(CNS(=O)(=O)[C@@H]2O[C@H](C(=O)O)[C@H](O)[C@H](O)[C@H]2O)cc1`, for which the Ki in data set [1] is 81 nM; in data set [2], 7.1 nM; in data set [3], 97 nM; in data set [4], 8.9 nM.

`CC(=O)OC[C@H]1O[C@@H](S(=O)(=O)NCc2ccc(S(N)(=O)=O)cc2)[C@H](OC(C)=O)[C@@H](OC(C)=O)[C@@H]1O[C@H]1O[C@H](COC(C)=O)[C@@H](OC(C)=O)[C@H](OC(C)=O)[C@H]1OC(C)=O`: the Ki was 2040 nM in data set [1], 62.5 nM in data set [2] and 9.1 nM in data set [4].

As for `NS(=O)(=O)c1ccc(CNS(=O)(=O)[C@@H]2O[C@H](CO)[C@@H](O[C@H]3O[C@H](CO)[C@@H](O)[C@H](O)[C@H]3O)[C@H](O)[C@H]2O)cc1`, the Ki in data set [1] came to 101 nM; in data set [2], 4.8 nM; in data set [3] it was 98 nM; in data set [4], 8.2 nM.

With `CC(=O)OC[C@H]1O[C@@H](SNCCc2ccc(S(N)(=O)=O)cc2)[C@H](OC(C)=O)[C@@H](OC(C)=O)[C@@H]1O[C@H]1O[C@H](COC(C)=O)[C@@H](OC(C)=O)[C@H](OC(C)=O)[C@H]1OC(C)=O`, the Ki in data set [1] turned out to be 6750 nM; in data set [2] it was 15.1 nM; in data set [3] it was 94 nM; in data set [4] it was 8.8 nM.

Take `CC(=O)OC[C@H]1O[C@@H](S(=O)(=O)NCCc2ccc(S(N)(=O)=O)cc2)[C@H](OC(C)=O)[C@@H](OC(C)=O)[C@@H]1O[C@H]1O[C@H](COC(C)=O)[C@@H](OC(C)=O)[C@H](OC(C)=O)[C@H]1OC(C)=O`: the Ki in data set [1] turned out to be 5570 nM; in data set [2], 15.2 nM; in data set [3] it was 93 nM; in data set [4], 8.8 nM.

For `CC(=O)OC[C@H]1O[C@@H](SNCCc2ccc(S(N)(=O)=O)cc2)[C@H](OC(C)=O)[C@@H](OC(C)=O)[C@H]1OC(C)=O`, the Ki turned out to be 4100 nM in data set [1], 13.3 nM in data set [2], 107 nM in data set [3] and 16.7 nM in data set [4].

`CC(=O)OC[C@H]1O[C@@H](SNCc2ccc(S(N)(=O)=O)cc2)[C@H](OC(C)=O)[C@@H](OC(C)=O)[C@@H]1O[C@H]1O[C@H](COC(C)=O)[C@@H](OC(C)=O)[C@H](OC(C)=O)[C@H]1OC(C)=O`: the Ki came out at 3460 nM in data set [1], 13.1 nM in data set [2] and 8.5 nM in data set [4].

`COC(=O)[C@H]1O[C@@H](SNCCc2ccc(S(N)(=O)=O)cc2)[C@H](OC(C)=O)[C@@H](OC(C)=O)[C@H]1OC(C)=O`: the Ki was determined as 110 nM in data set [1], 16.2 nM in data set [2] and 9.5 nM in data set [4].

As to `CC(=O)OC[C@H]1O[C@@H](SNCc2ccc(S(N)(=O)=O)cc2)[C@H](OC(C)=O)[C@@H](OC(C)=O)[C@@H]1OC(C)=O`, the values for the inhibition constant (Ki) in data set [1], in data set [2] and in data set [4] were 4160 nM, 14.8 nM and 11.5 nM, respectively.

In the case of `NS(=O)(=O)c1ccc(CNS(=O)(=O)[C@@H]2O[C@H](CO)[C@@H](O)[C@H](O)[C@H]2O)cc1`, the Ki in data set [1] turned out to be 102 nM; in data set [2], 9.1 nM; in data set [4], 8.3 nM. For the same compound, the Papp in data set [5] is less than 0.05 ×10⁻⁶ cm/s.

`CC(=O)OC[C@H]1O[C@@H](O[C@H]2[C@H](OC(C)=O)[C@@H](OC(C)=O)[C@H](S(=O)(=O)NCc3ccc(S(N)(=O)=O)cc3)O[C@@H]2COC(C)=O)[C@H](OC(C)=O)[C@@H](OC(C)=O)[C@H]1OC(C)=O`: the Ki in data set [1] amounted to 4930 nM; in data set [2] it was 58.8 nM; in data set [4] it was 10.4 nM.

For `CC(=O)OC[C@H]1O[C@@H](S(=O)(=O)NCCc2ccc(S(N)(=O)=O)cc2)[C@H](OC(C)=O)[C@@H](OC(C)=O)[C@H]1OC(C)=O`, the Ki in data set [1] came out at 4710 nM; in data set [2], 73.8 nM; in data set [4] it was 9.4 nM.

With `CC(=O)OC[C@H]1O[C@@H](SNCCc2ccc(S(N)(=O)=O)cc2)[C@H](OC(C)=O)[C@@H](OC(C)=O)[C@@H]1OC(C)=O`, the Ki in data set [1] came out at 3890 nM; in data set [2], 14.5 nM; in data set [3] it was 97 nM; in data set [4], 13.6 nM.

In the case of `CC(=O)OC[C@H]1O[C@@H](S(=O)(=O)NCCc2ccc(S(N)(=O)=O)cc2)[C@H](OC(C)=O)[C@@H](OC(C)=O)[C@@H]1OC(C)=O`, the Ki stood at 90 nM in data set [1], 15.4 nM in data set [2] and 9.5 nM in data set [4].

Regarding `NS(=O)(=O)c1ccc(CCNS(=O)(=O)[C@@H]2O[C@H](C(=O)O)[C@H](O)[C@H](O)[C@H]2O)cc1`, the Ki in data set [1] is 97 nM; in data set [2], 4.7 nM; in data set [3], 96 nM; in data set [4], 9.5 nM.

As to `CC(=O)OC[C@H]1O[C@@H](O[C@H]2[C@H](OC(C)=O)[C@@H](OC(C)=O)[C@H](SNCCc3ccc(S(N)(=O)=O)cc3)O[C@@H]2COC(C)=O)[C@H](OC(C)=O)[C@@H](OC(C)=O)[C@H]1OC(C)=O`, the Ki amounted to 8040 nM in data set [1], 12 nM in data set [2], 97 nM in data set [3] and 8.7 nM in data set [4].

For the compound `CC(=O)OC[C@H]1O[C@@H](S(=O)(=O)NCc2ccc(S(N)(=O)=O)cc2)[C@H](OC(C)=O)[C@@H](OC(C)=O)[C@@H]1OC(C)=O`, the Ki was determined as 120 nM in data set [1], 14.8 nM in data set [2] and 9.3 nM in data set [4]. Besides, the Papp in data set [5] was less than 0.05 ×10⁻⁶ cm/s.

As to `CC(=O)OC[C@H]1O[C@@H](O[C@H]2[C@H](OC(C)=O)[C@@H](OC(C)=O)[C@H](S(=O)(=O)NCCc3ccc(S(N)(=O)=O)cc3)O[C@@H]2COC(C)=O)[C@H](OC(C)=O)[C@@H](OC(C)=O)[C@H]1OC(C)=O`, the Ki in data set [1] came out at 3460 nM; in data set [2], 56.2 nM; in data set [3] it was 97 nM; in data set [4], 9.5 nM.

For `CC(=O)OC[C@H]1O[C@@H](S(=O)(=O)NCc2ccc(S(N)(=O)=O)cc2)[C@H](OC(C)=O)[C@@H](OC(C)=O)[C@H]1OC(C)=O`, the Ki in data set [1] worked out at 110 nM; in data set [2], 16.3 nM; in data set [4], 9.9 nM.

For the compound `CC(=O)Nc1nnc(S(N)(=O)=O)s1` [ACETAZOLAMIDE], the Papp in data set [5] is less than 0.15 ×10⁻⁶ cm/s.

Take `NS(=O)(=O)c1ccc(CCNS(=O)(=O)[C@@H]2O[C@H](CO)[C@@H](O[C@H]3O[C@H](CO)[C@@H](O)[C@H](O)[C@H]3O)[C@H](O)[C@H]2O)cc1`: the inhibitory constant (Ki) is 102 nM in data set [1], 5.2 nM in data set [2], 81 nM in data set [3] and 7.3 nM in data set [4].

In the case of `NS(=O)(=O)c1ccc(CNS(=O)(=O)[C@@H]2O[C@H](CO)[C@H](O)[C@H](O)[C@H]2O)cc1`, the Ki in data set [1] was determined as 87 nM; in data set [2], 7.8 nM; in data set [4] it was 8.7 nM.

Take `COC(=O)[C@H]1O[C@@H](SNCc2ccc(S(N)(=O)=O)cc2)[C@H](OC(C)=O)[C@@H](OC(C)=O)[C@H]1OC(C)=O`: the Ki in data set [1] amounted to 110 nM; in data set [2], 18.1 nM; in data set [3] it was 102 nM; in data set [4], 15.6 nM.

As to `COC(=O)[C@H]1O[C@@H](S(=O)(=O)NCCc2ccc(S(N)(=O)=O)cc2)[C@H](OC(C)=O)[C@@H](OC(C)=O)[C@H]1OC(C)=O`, the inhibition constant (Ki) in data set [1] was 3210 nM; in data set [2], 62.7 nM; in data set [3] it was 95 nM; in data set [4], 9.7 nM.

Turning to `NS(=O)(=O)c1ccc(CCNS(=O)(=O)[C@@H]2O[C@H](CO)[C@@H](O)[C@H](O)[C@H]2O)cc1`, the Ki stood at 88 nM in data set [1], 7.8 nM in data set [2], 84 nM in data set [3] and 7.6 nM in data set [4].
